The values below come from paper PMC4545932, “Inhibition by stabilization: targeting the Plasmodium falciparum aldolase–TRAP complex” (Malaria Journal, 2015).

This assay deals with T1, rabbit muscle aldolase (Oryctolagus cuniculus, UniProt P00883).
T1 construct: gene ALDOA
T1 sequence (P00883 2-364): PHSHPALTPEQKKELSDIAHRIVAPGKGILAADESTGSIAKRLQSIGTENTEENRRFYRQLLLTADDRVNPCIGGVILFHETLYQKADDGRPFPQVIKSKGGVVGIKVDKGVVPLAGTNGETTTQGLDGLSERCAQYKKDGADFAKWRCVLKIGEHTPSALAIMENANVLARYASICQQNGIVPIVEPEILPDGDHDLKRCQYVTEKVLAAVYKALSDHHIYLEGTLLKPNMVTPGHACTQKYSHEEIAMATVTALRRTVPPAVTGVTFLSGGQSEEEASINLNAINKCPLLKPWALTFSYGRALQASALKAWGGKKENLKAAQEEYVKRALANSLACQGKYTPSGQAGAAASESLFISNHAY
The experiment in a line: coupled NADH assay (alpha-GDH/TPI), […] nm. The format is biochemical. The note with it: 2 mM F16P; pH 7.3; 25 °C; no TRAP peptide.

As to `O=P(O)(O)OC[C@H]1OC(O)(COP(=O)(O)O)[C@@H](O)[C@@H]1O` (stereo partly shown) [fructose 1,6-bisphosphate], the “coupled NADH assay (alpha-GDH/TPI), 340 nm” value is “The assay was performed as described previously, however in the absence of TRAP-peptide”.
